Data taken from patent publication US11034717B2, “Farnesoid X receptor modulators” (Intercept Pharmaceuticals, Inc., priority 2015, dated 2021).
Like-named read-outs stand apart in the source and are kept apart here.

Assays:
[1] = 1-octanol-water partition coefficient of ionized species; type: physicochemical
Description: (§1) Physiochemical properties of a compound of the invention such as water solubility, critical micellar concentration, surface tension, and LogPA were determined using methods known in the art.

dTGR5 = test: Cross species TGR5 activity, CHO cells, dog; type: cell-based
CYP2E1 = CYP2E1 (Homo sapiens (Human), UniProt P05181); test: CYP450 inhibition, fluorescent substrate, recombinant baculosomes; type: in vitro ADME
CYP2E1, sequence (P05181 whole entry, canonical isoform): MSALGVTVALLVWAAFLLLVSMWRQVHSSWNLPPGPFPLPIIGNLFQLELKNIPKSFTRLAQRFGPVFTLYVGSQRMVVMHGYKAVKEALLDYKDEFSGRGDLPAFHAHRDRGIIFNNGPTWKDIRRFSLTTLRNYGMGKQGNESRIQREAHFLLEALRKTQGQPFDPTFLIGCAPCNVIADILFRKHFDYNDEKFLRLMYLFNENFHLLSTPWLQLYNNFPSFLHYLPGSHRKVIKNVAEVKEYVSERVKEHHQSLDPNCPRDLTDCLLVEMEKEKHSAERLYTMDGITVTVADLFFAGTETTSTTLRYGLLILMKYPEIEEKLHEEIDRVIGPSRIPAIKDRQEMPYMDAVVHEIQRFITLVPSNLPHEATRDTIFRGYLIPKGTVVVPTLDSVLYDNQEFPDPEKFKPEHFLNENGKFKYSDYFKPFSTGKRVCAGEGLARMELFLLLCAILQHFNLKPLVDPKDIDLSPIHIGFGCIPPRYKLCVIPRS
Description: (§2) To evaluate the potential of a compound of the invention for drug-drug interactions, the six main CYP450 isoforms (CYP1A2, CYP2C9, CYP2C19, CYP2D6, CYP2E1, CYP3A4) are investigated (Obach, et al., J Pharmacol. Exp. Ther, 2006, 316, 336-348).
(§3) To determine interaction between a compound of the invention and cytochrome P450 enzymes, the compound of the invention is analyzed by its capacity to inhibit (or not) the production of a fluorescent signal, using recombinant CYP450 proteins (baculosomes; Invitrogen), substrates and inhibitors (Bidstrup, et al., Br J Clin. Pharmacol, 2003, 56, 305-14). As a positive control, a selective inhibitor for each CYP450 isoform is tested in the same plate.

CYP2C9 = CYP2C9 (Homo sapiens (Human), UniProt P11712); test: as above; type: in vitro ADME
CYP2C9, sequence (P11712 whole entry): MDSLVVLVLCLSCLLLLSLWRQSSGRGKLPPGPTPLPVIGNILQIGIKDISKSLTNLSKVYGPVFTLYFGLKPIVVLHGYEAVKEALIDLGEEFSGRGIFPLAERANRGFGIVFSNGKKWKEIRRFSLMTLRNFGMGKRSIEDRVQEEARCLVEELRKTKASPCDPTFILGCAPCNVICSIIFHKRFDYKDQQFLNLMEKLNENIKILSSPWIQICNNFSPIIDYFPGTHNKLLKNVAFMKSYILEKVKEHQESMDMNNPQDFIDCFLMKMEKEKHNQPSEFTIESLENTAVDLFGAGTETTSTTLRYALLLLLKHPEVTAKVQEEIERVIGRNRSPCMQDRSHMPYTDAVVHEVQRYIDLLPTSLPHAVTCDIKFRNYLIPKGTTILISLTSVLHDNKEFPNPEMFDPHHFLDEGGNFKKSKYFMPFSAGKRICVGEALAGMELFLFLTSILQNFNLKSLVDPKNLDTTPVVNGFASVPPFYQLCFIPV
Description: as §2, §3

CYP2C19 = CYP2C19 (Homo sapiens (Human), UniProt P33261); test: as above; type: in vitro ADME
CYP2C19, sequence (P33261 whole entry): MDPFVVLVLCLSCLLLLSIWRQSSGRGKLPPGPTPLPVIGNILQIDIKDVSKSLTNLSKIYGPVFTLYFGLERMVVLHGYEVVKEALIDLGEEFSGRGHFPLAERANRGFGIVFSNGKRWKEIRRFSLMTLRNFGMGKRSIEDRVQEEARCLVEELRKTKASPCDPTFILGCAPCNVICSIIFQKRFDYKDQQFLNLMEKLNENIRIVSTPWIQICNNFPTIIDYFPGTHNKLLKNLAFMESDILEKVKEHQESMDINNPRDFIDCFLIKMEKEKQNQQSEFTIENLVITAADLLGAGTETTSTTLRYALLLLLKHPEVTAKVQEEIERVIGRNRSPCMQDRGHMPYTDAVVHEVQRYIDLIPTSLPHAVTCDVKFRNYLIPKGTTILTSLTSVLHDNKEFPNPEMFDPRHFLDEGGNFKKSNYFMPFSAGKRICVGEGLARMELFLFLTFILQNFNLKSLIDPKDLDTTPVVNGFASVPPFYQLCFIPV
Description: as §2, §3

CYP3A4 = CYP3A4 (Homo sapiens (Human), UniProt P08684); test: as above; type: in vitro ADME
CYP3A4, sequence (P08684 whole entry): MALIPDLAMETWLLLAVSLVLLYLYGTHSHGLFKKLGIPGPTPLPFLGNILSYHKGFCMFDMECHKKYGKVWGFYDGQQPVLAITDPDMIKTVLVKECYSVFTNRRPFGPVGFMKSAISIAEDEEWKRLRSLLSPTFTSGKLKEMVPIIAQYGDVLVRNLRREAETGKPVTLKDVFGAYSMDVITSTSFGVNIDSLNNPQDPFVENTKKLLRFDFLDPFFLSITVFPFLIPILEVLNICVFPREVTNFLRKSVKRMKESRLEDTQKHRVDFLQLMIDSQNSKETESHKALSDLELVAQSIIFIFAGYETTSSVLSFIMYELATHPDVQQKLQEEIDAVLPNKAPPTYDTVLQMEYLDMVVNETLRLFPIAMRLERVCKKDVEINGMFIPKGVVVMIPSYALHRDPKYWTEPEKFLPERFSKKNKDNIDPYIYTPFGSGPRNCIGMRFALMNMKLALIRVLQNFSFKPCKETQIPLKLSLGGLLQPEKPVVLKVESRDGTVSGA
Description: as §2, §3

CYP2D6 = CYP2D6 (Homo sapiens (Human), UniProt P10635); test: as above; type: in vitro ADME
CYP2D6, sequence (P10635 whole entry): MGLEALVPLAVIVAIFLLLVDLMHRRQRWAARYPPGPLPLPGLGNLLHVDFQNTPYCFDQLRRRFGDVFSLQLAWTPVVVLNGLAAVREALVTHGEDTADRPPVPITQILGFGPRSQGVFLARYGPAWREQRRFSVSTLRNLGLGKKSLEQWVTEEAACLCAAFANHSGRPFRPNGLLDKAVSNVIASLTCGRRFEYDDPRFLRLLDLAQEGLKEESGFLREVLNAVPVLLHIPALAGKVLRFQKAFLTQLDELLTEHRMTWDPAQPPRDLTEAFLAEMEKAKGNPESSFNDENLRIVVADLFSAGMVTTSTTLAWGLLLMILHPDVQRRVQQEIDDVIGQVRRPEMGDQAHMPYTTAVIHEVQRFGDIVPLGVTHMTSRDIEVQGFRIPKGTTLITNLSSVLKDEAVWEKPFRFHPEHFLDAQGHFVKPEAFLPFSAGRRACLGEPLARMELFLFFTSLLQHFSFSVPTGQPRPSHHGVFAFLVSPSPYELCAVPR
Description: as §2, §3

CYP1A2 = CYP1A2 (Homo sapiens (Human), UniProt P05177); test: as above; type: in vitro ADME
CYP1A2, sequence (P05177 whole entry): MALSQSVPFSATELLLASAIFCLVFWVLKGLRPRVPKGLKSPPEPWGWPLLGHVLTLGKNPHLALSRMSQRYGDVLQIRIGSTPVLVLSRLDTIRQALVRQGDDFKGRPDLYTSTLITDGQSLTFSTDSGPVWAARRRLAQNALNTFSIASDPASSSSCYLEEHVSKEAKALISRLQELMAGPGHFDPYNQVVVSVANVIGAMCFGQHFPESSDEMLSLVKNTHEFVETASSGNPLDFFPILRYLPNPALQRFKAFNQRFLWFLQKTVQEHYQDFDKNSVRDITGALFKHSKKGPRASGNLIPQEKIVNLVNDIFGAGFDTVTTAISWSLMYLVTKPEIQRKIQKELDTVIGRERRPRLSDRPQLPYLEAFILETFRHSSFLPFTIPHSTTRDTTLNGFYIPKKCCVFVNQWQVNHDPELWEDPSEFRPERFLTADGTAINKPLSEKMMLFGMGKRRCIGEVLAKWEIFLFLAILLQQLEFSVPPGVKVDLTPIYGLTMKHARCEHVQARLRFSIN
Description: as §2, §3

rTGR5 = rTGR5 (Rattus norvegicus (Rat), UniProt Q80T02); test: Cross species TGR5 activity, CHO cells, rat; type: cell-based
rTGR5, sequence (Q80T02 whole entry): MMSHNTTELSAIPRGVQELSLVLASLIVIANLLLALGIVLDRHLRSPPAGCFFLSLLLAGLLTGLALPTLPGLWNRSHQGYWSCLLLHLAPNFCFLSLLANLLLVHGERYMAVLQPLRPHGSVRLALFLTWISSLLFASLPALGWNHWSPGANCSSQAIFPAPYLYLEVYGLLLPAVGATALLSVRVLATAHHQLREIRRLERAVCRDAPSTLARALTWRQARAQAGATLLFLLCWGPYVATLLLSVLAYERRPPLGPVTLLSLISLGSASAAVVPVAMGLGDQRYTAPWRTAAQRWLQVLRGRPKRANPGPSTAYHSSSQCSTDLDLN

[2] = Critical micellar concentration; type: physicochemical; details: determined in […] NaCl water solution
Description: as §1

hERG potassium channel = hERG potassium channel (Homo sapiens (Human), UniProt Q12809); test: biochemical; details: for hERG potassium channel inhibition (in words): Table 7 footnote
hERG potassium channel, sequence (Q12809 whole entry): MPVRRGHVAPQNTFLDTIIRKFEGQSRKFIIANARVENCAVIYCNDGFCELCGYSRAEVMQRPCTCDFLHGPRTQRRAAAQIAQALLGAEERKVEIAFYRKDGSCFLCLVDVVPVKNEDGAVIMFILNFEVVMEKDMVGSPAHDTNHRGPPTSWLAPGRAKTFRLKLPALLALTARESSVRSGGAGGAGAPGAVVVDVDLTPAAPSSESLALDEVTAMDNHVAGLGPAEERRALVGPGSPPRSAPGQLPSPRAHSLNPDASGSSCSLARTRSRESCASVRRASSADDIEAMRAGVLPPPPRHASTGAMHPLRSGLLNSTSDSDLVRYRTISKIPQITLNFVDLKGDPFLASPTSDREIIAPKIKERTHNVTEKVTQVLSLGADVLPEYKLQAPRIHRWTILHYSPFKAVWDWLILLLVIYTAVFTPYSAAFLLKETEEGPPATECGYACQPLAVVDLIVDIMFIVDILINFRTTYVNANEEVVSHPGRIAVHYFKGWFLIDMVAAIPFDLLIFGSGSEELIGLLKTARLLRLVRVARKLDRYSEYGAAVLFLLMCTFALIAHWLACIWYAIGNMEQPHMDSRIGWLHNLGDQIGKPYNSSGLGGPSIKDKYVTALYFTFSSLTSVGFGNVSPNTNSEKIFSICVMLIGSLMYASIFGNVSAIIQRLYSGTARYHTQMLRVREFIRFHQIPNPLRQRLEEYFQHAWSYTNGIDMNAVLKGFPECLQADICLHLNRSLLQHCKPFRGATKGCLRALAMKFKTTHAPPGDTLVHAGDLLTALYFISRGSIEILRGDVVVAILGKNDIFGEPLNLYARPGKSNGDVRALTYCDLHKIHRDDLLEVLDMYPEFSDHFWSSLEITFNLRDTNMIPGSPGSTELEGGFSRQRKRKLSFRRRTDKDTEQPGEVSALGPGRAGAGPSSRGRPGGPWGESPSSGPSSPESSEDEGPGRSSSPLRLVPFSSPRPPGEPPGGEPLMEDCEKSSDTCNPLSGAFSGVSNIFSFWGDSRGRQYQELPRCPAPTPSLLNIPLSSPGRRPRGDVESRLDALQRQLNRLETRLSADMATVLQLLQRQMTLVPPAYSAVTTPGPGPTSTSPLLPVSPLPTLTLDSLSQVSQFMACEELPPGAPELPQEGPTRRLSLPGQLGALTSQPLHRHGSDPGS
From the text: The assay is based on the assumption that the hERG potassium channel activity contributes to the resting membrane potential in permanently transfected cells, and thus a block of hERG channels should result in a depolarization of the cell membrane. The assay is designed to identify potential hERG channel blockers by producing data that accurately correlates with patch-clamp electrophysiology studies.
Membrane preparations from Chinese hamster ovary cells stably transfected with hERG potassium channel are used to evaluate the potential inhibitory effect of a compound of the invention on this channel using the Predictor™ fluorescence polarization assay. Reduction of membrane polarization as a result of inhibition of the hERG potassium channel is directly correlated with a reduction of the fluorescence polarization (FP).
An assay window more than 100 mP (millipolarization) is considered good. The non-linear regression curves are obtained by GraphPad Prism (GraphPad Software Inc.) analysis, to calculate the IC50 values.

[3] = system: FXR target genes: BSEP, SHP, OSTβ and CYP7A1; test: FXR target gene panel, quantitative RT-PCR in HepG2 cells; type: cell-based; details: stimulation for 18 hours
Description: To evaluate the capacity of a compound of the invention to modulate FXR target genes, quantitative RT-PCR assays are performed. HepG2 cells are selected as a relevant cell line to determine whether a compound of the invention can regulate the endogenous FXR genetic network. The ability of a compound of the invention to induce FXR target genes is assessed by isolating total RNA from cells treated overnight with 1 μM of compounds A, B, and a compound of the invention.
FXR regulates the expression of several target genes involved in BA homeostasis. Briefly, FXR plays a central role in several metabolic pathways, including i.e., lipid metabolism, bile-acids metabolism, and carbohydrate metabolism. Regarding gene expression profiling, the genes encoding proteins involved in lipid metabolism include, e.g., APOCII, APOE, APOAI, SREBP-1C, VLDL-R, PLTP, and LPL; the genes encoding proteins involved in bile-acids metabolism include, e.g., OSTα/β, BSEP, MRP2, SHP, CYP7A1, FGF19, SULT2A1, and UGT2B4; and the genes encoding proteins involved in carbohydrate metabolism include, e.g., PGCla, PEPCK, and GLUT2. FXR target genes: BSEP, SHP, OSTβ and CYP7A1 were evaluated following stimulation of Compounds 3, 5, 6, and 7 on HepG2 cells for 18 hours. Compound L1 was used as a control.

[4] = system: nuclear receptors LXRP, PXR, CAR, PPARα, PPARγ, RAR, RARα, VDR, TR, PR, RXR, GR, and ER; test: Nuclear receptor selectivity profile (AlphaScreen); type: biochemical; details: for Activation of nuclear receptor panel, agonist mode: dose response to 200 μM; for Activity on nuclear receptor panel, antagonist mode: fixed concentration at 10 μM
Description: Using the AlphaScreen assay, the selectivity of a compound of the invention against the following nuclear receptors involved in the metabolic pathways can be evaluated: LXRP, PXR, CAR, PPARα, PPARα, PPARγ, RAR, RARα, VDR, TR, PR, RXR, GR, and ER.
Compounds L1, 3, 5, 6 and 7 were tested against the panel of available nuclear receptor in both agonist and antagonist mode.

hTGR5 [5] = molecular target: T1, hTGR5 (Homo sapiens (Human), UniProt Q8TDU6); test: HTR-FRET intracellular cAMP assay in NCI-H716 cells; type: cell-based; details: Table 1; Ref LCA
T1 sequence (Q8TDU6 whole entry): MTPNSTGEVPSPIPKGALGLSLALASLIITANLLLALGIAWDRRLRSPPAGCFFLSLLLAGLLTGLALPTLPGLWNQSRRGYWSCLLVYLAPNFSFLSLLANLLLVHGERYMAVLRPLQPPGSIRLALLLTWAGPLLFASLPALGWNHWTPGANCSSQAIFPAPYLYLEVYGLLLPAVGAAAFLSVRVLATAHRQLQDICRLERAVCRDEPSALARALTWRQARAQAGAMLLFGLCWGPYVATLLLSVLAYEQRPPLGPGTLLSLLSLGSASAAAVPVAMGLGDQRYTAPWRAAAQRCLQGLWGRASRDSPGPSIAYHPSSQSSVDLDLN

HepG2 cells = test: In-vitro cytotoxicity, ATP content; type: cell-based; details: Table 5A
From the text: To evaluate in-vitro cytotoxicity of a compound of the invention, two different assay methods are employed. The assays evaluate cell viability by measuring ATP levels and cytotoxicity by measuring LDH release. […] It has been called the “molecular unit of currency” when it comes to intracellular energy transfer.
An additional method to determine the viability of cells is to detect the integrity of the membrane that defines the cellular compartmentalization. Measuring the leakage of components out of the cytoplasm, in damaged cell membranes, indicates loss of membrane integrity, and LDH release is the method used to determine common toxicity in cells. HepG2 cells are treated with a compound of the invention, and serial dilutions are performed. LCA dilutions are added to the plated cells as assay controls together with no-cell and untreated cells. The assay is performed in triplicate for each test compound concentration.

mTGR5 = mTGR5 (Mus musculus (Mouse), UniProt Q80SS6); test: Cross species TGR5 activity, CHO cells, mouse; type: cell-based
hTGR5 [6] = molecular target: T1, hTGR5; test: Cross species TGR5 activity, CHO cells, human; type: cell-based
[7] = read-out: CYP3A4 (Green substrate) IC50, Green substrate

In the case of CC[C@H]1[C@@H](O)C2C3CC[C@H]([C@H](C)C[C@H](C)C(=O)O)[C@@]3(C)CCC2[C@@]2(C)CC[C@@H](O)C[C@@H]12 (stereo partly drawn) [Compound D, 6α-ethyl-23(R)-methyl chenodeoxycholic acid], the “LogPA−: 1-octanol-water partition coefficient as ionized species” value (shortened to “LogPA− … as ionized species”) [1] is reported as 2.9.

In the case of CC[C@H]1[C@@H](O)C2C3CC[C@H]([C@H](C)CCOS(=O)(=O)[O-])[C@@]3(C)C[C@H](O)C2[C@@]2(C)CC[C@@H](O)C[C@@H]12.[Na+] (stereo partly drawn) [Compound 3, 3α,7α,11β,23-tetrahydroxy-6α-ethyl-24-nor-5β-cholan-23-O-sulphate sodium salt], the “dTGR5 CHO EC50” value (dTGR5) is reported as “No activity”, the “LogPA− … as ionized species” value [1] is reported as 0.12 and the IC50 (CYP2E1) is reported as > 10 µM. For the same compound, the IC50 (CYP2C9) was > 10 µM, the IC50 (CYP2C19) was > 10 µM and the IC50 (CYP3A4) was > 10 µM. For the same compound, the IC50 (CYP3A4; [7]) was > 10 µM, the IC50 (CYP2D6) was > 10 µM and the IC50 (CYP1A2) was > 10 µM. The “rTGR5 CHO EC50” value (rTGR5) was “No activity”, the “CMC: Critical Micellar Concentration” value [2] was 12.5 mM and the IC50 (hERG potassium channel) was > 100 µM. For the same compound, the “hERG potassium channel inhibition (in words)” value (hERG potassium channel) was “Compounds L1, 3, 5, 6 and 7 did not inhibit hERG potassium channel”, the “Modulation of FXR target genes BSEP, SHP, OSTβ and CYP7A1” value [3] was “significantly bind to FXR in hepatic cells modulating FXR target genes” and the “Activation of nuclear receptor panel, agonist mode” value [4] was “Neither compound activated any of the receptors”. The “Activity on nuclear receptor panel, antagonist mode” value [4] was “Neither compound activated any of the receptors”, the EC50 (hTGR5 [5]) was 83 ± 7 µM and the “ATP Content EC50” value (HepG2 cells) was “No toxicity”. For the same compound, the EC50 (mTGR5) was 3 ± 0.5 µM and the EC50 (hTGR5 [6]) was 5 ± 1 µM.

Compound “6α-ethyl-3α,7α,23-trihydroxy-24-nor-5β-cholan-23-sulphate sodium salt [Compound B, reference compound]” has an EC50 (hTGR5 [5]) of 0.63 µM.

In the case of CC[C@H]1[C@@H](O)C2C3CC[C@H]([C@H](C)CCO)[C@@]3(C)C[C@H](O)C2[C@@]2(C)CC[C@@H](O)C[C@@H]12 (stereo partly drawn) [Compound 2, 3α,7α,11β-trihydroxy-6α-ethyl-24-nor-5β-cholan-23-ol], the EC50 (hTGR5 [5]) is reported as 93 µM.

For CC[C@H]1[C@@H](O)C2C3CCC(C(C)CC(C)C(=O)O)[C@@]3(C)[C@@H](O)CC2[C@@]2(C)CC[C@@H](O)C[C@@H]12 (stereo in doubt) [Compound C, 6α-ethyl-23(S)-methyl-3α,7α,12α trihydroxy-5β-cholan-24-oic acid, reference compound], the “LogPA− … as ionized species” value [1] was 1.4 and the “CMC: Critical Micellar Concentration” value [2] was 2 mM.

In the case of CC[C@H]1[C@@H](O)C2C3CC[C@H]([C@H](C)CCCOS(=O)(=O)[O-])[C@@]3(C)C[C@H](O)C2[C@@]2(C)CC[C@@H](O)C[C@@H]12.[Na+] (stereo partly drawn) [Compound 5, 3α,7α,11β-Trihydroxy-6α-ethyl-5β-cholan-24-O-sulphate, sodium salt], the “dTGR5 CHO EC50” value (dTGR5) is reported as “No activity”, the “LogPA− … as ionized species” value [1] is reported as 0.61 and the IC50 (CYP2E1) is reported as > 10 µM. The IC50 (CYP2C9) was > 10 µM, the IC50 (CYP2C19) was > 10 µM and the IC50 (CYP3A4) was > 10 µM. The IC50 (CYP3A4; [7]) was > 10 µM, the IC50 (CYP2D6) was > 10 µM and the IC50 (CYP1A2) was > 10 µM. The “rTGR5 CHO EC50” value (rTGR5) was “No activity”, the “CMC: Critical Micellar Concentration” value [2] was 8.5 mM and the IC50 (hERG potassium channel) was > 100 µM. The “hERG potassium channel inhibition (in words)” value (hERG potassium channel) was “Compounds L1, 3, 5, 6 and 7 did not inhibit hERG potassium channel”, the “Modulation of FXR target genes BSEP, SHP, OSTβ and CYP7A1” value [3] was “significantly bind to FXR in hepatic cells modulating FXR target genes” and the “Activation of nuclear receptor panel, agonist mode” value [4] was “Neither compound activated any of the receptors”. For the same compound, the “Activity on nuclear receptor panel, antagonist mode” value [4] was “Neither compound activated any of the receptors”, the EC50 (hTGR5 [5]) was 78 ± 1 µM and the “ATP Content EC50” value (HepG2 cells) was “No toxicity”. It also gave an EC50 (mTGR5) of 4 ± 1 µM and an EC50 (hTGR5 [6]) of 3 ± 1 µM.

For CC[C@H]1[C@@H](O)C2C3C[C@H](O)[C@H]([C@H](C)CCC(=O)O)[C@@]3(C)CCC2[C@@]2(C)CC[C@@H](O)C[C@@H]12 (stereo partly drawn) [Compound E, reference compound], the “LogPA− … as ionized species” value [1] was 1.6 and the “CMC: Critical Micellar Concentration” value [2] was 5.9 mM.

With CC[C@H]1[C@@H](O)C2C3CC[C@H]([C@H](C)CC(=O)O)[C@@]3(C)C[C@H](O)C2[C@@]2(C)CC[C@@H](O)C[C@@H]12 (stereo partly drawn) [Compound 1, 3α,7α,11β-trihydroxy-6α-ethyl-24-nor-5β-cholan-23-oic acid] the EC50 (hTGR5 [5]) was > 100 µM.

Compound CC[C@H]1[C@@H](O)[C@@H]2[C@H]([C@@H](O)C[C@]3(C)[C@@H]([C@H](C)CCCO)CC[C@@H]23)[C@@]2(C)CC[C@@H](O)C[C@@H]12 [Compound 4, 3α,7α,11β-trihydroxy-6α-ethyl-5β-cholan-24-ol] has an EC50 (hTGR5 [5]) of 13.7 ± 2.3 µM.

With CC[C@H]1[C@@H](O)[C@@H]2[C@H](CC[C@]3(C)[C@@H]([C@H](C)CCC(=O)O)CC[C@@H]23)[C@@]2(C)CC[C@@H](O)C[C@@H]12 [Compound A, 6α-ethyl-3α,7α-dihydroxy-5β-cholan-24-oic acid, reference compound] the “LogPA− … as ionized species” value [1] was 2.5 and the “CMC: Critical Micellar Concentration” value [2] was 2.9 mM.
